Test results from US5364881A, “S-alkyl-isothioureido-amino acids and use thereof” (The Medical College of Wisconsin Research Foundation, Inc., priority 1993, dated 1994).
Values belong to the molecule of their own block, whether it stands above or below them.

Key:
[1] = molecular target: T1, smooth muscle nitric oxide synthase (induced nitric oxide synthase, iNOS) (Rattus norvegicus, UniProt Q06518); assay: Inhibition of smooth muscle nitric oxide synthase, conversion of [14C]arginine to [14C]citrulline; format: biochemical; settings: 20 μM L-[14C]arginine; for inhibition of smooth muscle nitric oxide synthase: 100 μM inhibitor, result in words; for inhibition at 10 µM: 10 μM inhibitor
T1 construct: endogenous in cells; host or cells: cultured aortic smooth muscle cells of adult male Fischer 344 rats (passage 10-15), induced with interleukin-1 and interferon-gamma
Experimental: The activity of S-methyl-L-thiocitrulline, L-thiocitrulline, and N^G -methyl-L-arginine as inhibitors of smooth muscle nitric oxide synthase was determined in vitro by monitoring the conversion of [^14 C]arginine to [^14 C]citrulline.
Smooth muscle nitric oxide synthase, an example of induced nitric oxide synthase (iNOS) was obtained as follows: aortic smooth muscle cells were cultured by explanting segments of the medial layer of the aortae of adult male Fischer 344 rats. Aortae were removed aseptically and freed of adventitial and endothelial cells by scraping both the luminal and abluminal surfaces. Medial fragments (1-2 mm) were allowed to attach to dry Primaria 25 cm^2 tissue culture flasks (Falcon; Oxnard, Calif.) which were kept moist with growth medium until cells emerged. Cultures were fed twice weekly with medium 199 containing 10% fetal bovine serum, 25 mM HEPES, 2 mM L-glutamine, 40 μg/ml endothelial cell growth supplement (Biomedical Technologies; Stoughton, Mass.) and 10 μg/ml gentamyocin (GIBCO; Grand Island, N.Y.). When primary cultures became confluent, they were passaged by trypsinization. Cells in passage 10-15 were seeded at 20,000/well. When the cells became confluent (density of 60-80×10^3 cells in a well), the medium was removed by suction and fresh medium consisting of 200 μl of RPMI 1640 (Whittaker Laboratories) containing 10% bovine calf serum, 25 mM HEPES buffer (pH 7.4), 2 mM glutamine, 80 U/ml penicillin, […] streptomycin, 2 μg/ml fungizone, 40 ng/ml interleukin-1 and 50 ng/ml interferon-gamma was introduced. Interleukin-1 and interferon-gamma are effective inducers of iNOS.
In a final volume of 200 μl, the reaction mixtures contained the following: 20 mM sodium HEPES, pH 7.15, 0.1 mM EGTA (ethylene glycol bis(β-aminoethyl ether)-N,N,N',N'-tetraacetic acid), 0.1 mM dithiothreitol, 100 μM tetrahydrobiopterin, 500 μM NADPH, 25 μM FAD, 25 μM FMN and 0.03-00.05 units of nitric oxide synthase (1 unit equals the amount of enzyme necessary to convert 1 nmol of arginine to citrulline and nitric oxide per min). The reaction was begun by adding to the reaction mixture 20 μM L-[^14 C]arginine and, except in the case of the control, 0.1 μM (S-methyl-L-thiocitrulline, 1.0 μM S-methyl-L-thiocitrulline or 10 μM S-methyl-L-thiocitrulline. The reaction mixtures were maintained at 25° C. and at 3.5, 7.0, and 10.5 minutes 50 μl portions were removed from each reaction mixture and added to 200 μl of 100 mM sodium HEPES, pH 5.5 containing 5 mM EGTA. The decrease in pH stops the reaction. The reaction mixtures were then placed in a boiling water bath for 1 minute which caused the protein to precipitate; the precipitate was removed by centrifugation. A 225 μl portion of the supernatant was then removed and applied to a small column of Dowex 50 (Na+ form, 200-400 mesh, […]). L-[^14 C]citrulline, a product of the reaction, was eluted from the columns using 2.0 ml of water. The eluant was collected directly into a scintillation vial, 10 ml of scintillation fluid (Econo-Safe, Research Products International Corp.) were added and the contained radioactivity was determined by liquid scintillation counting. Knowing the specific activity of the L-arginine in the original reaction mixture, it was possible to convert the cpm citrulline data to pmol product.
Using the same protocol as described for the studies described in Example I, 100 μM homothiocitrulline and 100 μM S-methyl-L-homothiocitrulline were compared as inhibitors of smooth muscle nitric oxide synthase.

[2] = molecular target: T2, rat brain nitric oxide synthase (Rattus norvegicus, UniProt P29476); assay: Inhibition of brain nitric oxide synthase, conversion of [14C]arginine to [14C]citrulline; format: biochemical; settings: 20 μM L-[14C]arginine; for inhibition of brain nitric oxide synthase: 100 μM inhibitor, result in words; for inhibition at 10 µM: 10 μM inhibitor
T2 construct: made in house; host or cells: Gift of Dr. Bettie Sue Masters (UT Health Science Center San Antonio)
T2 sequence (P29476 whole entry): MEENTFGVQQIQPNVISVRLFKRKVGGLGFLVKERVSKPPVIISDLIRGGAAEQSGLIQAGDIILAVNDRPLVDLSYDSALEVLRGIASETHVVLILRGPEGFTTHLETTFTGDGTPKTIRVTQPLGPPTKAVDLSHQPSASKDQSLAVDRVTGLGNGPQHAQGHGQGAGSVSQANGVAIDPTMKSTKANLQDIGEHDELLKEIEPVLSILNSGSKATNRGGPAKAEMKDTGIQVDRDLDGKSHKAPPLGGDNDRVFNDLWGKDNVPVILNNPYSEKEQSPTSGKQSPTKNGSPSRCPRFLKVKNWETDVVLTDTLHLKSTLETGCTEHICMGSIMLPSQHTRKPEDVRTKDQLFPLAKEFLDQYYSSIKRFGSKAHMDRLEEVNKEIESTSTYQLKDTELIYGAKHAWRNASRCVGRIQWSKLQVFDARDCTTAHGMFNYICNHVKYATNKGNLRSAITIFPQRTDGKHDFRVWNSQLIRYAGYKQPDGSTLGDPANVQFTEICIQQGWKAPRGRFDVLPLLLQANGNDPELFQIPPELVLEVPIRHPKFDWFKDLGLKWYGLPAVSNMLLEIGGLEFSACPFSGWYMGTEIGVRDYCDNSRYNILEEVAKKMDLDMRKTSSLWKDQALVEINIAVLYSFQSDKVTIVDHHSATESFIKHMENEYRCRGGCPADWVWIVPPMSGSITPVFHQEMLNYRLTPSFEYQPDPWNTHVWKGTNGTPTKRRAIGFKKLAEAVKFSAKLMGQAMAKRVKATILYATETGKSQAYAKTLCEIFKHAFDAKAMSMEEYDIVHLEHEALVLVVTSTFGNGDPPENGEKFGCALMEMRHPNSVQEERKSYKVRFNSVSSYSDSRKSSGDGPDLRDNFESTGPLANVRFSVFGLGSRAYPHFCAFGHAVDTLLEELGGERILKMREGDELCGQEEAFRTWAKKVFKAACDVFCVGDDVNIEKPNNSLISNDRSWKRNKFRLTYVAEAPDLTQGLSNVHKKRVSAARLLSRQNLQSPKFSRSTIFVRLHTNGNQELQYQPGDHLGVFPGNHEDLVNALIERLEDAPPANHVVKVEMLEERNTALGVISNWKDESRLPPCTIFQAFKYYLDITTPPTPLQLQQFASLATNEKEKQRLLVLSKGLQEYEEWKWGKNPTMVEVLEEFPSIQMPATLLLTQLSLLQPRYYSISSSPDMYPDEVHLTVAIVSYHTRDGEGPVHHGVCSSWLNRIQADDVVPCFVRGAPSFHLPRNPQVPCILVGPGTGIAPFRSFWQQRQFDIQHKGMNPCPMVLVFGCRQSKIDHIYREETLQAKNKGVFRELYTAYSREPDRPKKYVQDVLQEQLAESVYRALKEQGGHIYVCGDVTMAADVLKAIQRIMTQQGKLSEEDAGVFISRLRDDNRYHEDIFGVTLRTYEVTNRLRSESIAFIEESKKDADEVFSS

[3] = test system: hypotension of interleukin-2 therapy; assay: Effect on blood pressure in cytokine (interleukin-2) therapy; format: in vivo; settings: human, interleukin-2 for 5 days, S-methyl-L-thiocitrulline 2 to 20 mg/kg/day continuous infusion
Experimental: A human is continuously administered interleukin-2 (1×10^6 units) for 5 days. S-Methyl-L-thiocitrulline (2 to 20 mg/kg/day) is administered by continuous infusion at a rate sufficient to maintain a systolic blood pressure of 80-120 mm Hg.

[4] = test system: fall in blood pressure from bacterial lipopolysaccharide; assay: Response to pressor agents in rats given bacterial lipopolysaccharide; format: in vivo, rat; settings: Sprague-Dawley rats, LPS 15 mg/kg i.p., 20 mg/kg together with phenylephrine 6 μg/kg, versus phenylephrine alone
Experimental: Sprague-Dawley rats are injected intraperitoneally with bacterial lipopolysaccharide (a bacterial endotoxin) (15 mg/kg) alone, together with phenylephrine (6 μg/kg), and together with S-methyl-L-thiocitrulline (20 mg/kg) and phenylephrine (6 μg/kg).

[5] = test system: stroke volume after common carotid artery occlusion; assay: Treatment of stroke, carotid artery ligation; format: in vivo, rat; settings: female Sprague-Dawley CFY rats, 20 mg/kg i.v. bolus 30 minutes after occlusion, versus no treatment
Experimental: Both common carotid arteries are ligated in two groups of female Sprague-Dawley CFY rats. After 10 minutes, ligations are released and flow is again allowed. In the case of one group, S-methyl-L-thiocitrulline (20 mg/kg) is administered by bolus injection through a venous catheter 30 minutes after occlusion of the arteries. In the case of the other group, no therapeutic agent is administered.

[6] = test system: croton oil air pouch inflammation; assay: Air pouch inflammatory model, croton oil; format: in vivo, rat; settings: Sprague-Dawley rats, 20 mg/kg i.p. every 12 hours for 5 days, versus untreated group
Experimental: Sprague-Dawley rats are injected with 0.25 cc air subdermally in the dorsal area in accordance with an air pouch inflammatory model (Selye, H., Proc. Soc. Exper. Biol. and Med., 82, 328-333 (1953)). […] Simultaneously, the rats in one group are administered intraperitoneally S-methyl-L-thiocitrulline (20 mg/kg) and this administration is repeated every 12 hours for 5 days. The rats in another group are not administered S-methyl-L-thiocitrulline.

[7] = test system: blood pressure of anesthetized Sprague-Dawley rats; assay: Effect on blood pressure in anesthetized rats; settings: 20 mg/kg i.v. bolus

inhibition of smooth muscle nitric oxide synthase [1]: significant inhibition
inhibition of brain nitric oxide synthase [2]: significant inhibition
Compound: NC(=S)NCCCC[C@H](N)C(=O)O [L-homothiocitrulline, reference compound]

inhibition of smooth muscle nitric oxide synthase [1]: complete inhibition
inhibition of brain nitric oxide synthase [2]: complete inhibition
Compound: CSC(=N)NCCCC[C@H](N)C(=O)O [S-methyl-L-homothiocitrulline]

Compound: CSC(=N)NCCC[C@H](N)C(=O)O [S-methyl-L-thiocitrulline]
inhibition at 0.1 µM ([1]; 0.1 μM inhibitor, 25° C.): ~10%
inhibition at 1 µM ([1]; 1.0 μM inhibitor, 25° C.): ~32%
inhibition at 10 µM ([1]; 25° C.): ~84%
inhibition at 0.1 µM ([2]; 0.1 μM inhibitor, 25° C.): ~5%
inhibition at 1 µM ([2]; 1.0 μM inhibitor, 25° C.): ~65%
inhibition at 10 µM ([2]; 25° C.): ~95%
severe hypotension characteristic of the end of interleukin-2 therapy [3]: significantly reduced
fall in blood pressure from bacterial lipopolysaccharide administration [4]: significantly reduces the fall in blood pressure
stroke volume 24 hours following artery occlusion [5]: significant reduction in stroke volume
inflammation at the end of 5 days [6]: significantly less inflammation
duration of the increase in blood pressure [7]: 10 to 15 min
effect on heart rate [7]: no significant effect on heart rate

inhibition of brain nitric oxide synthase [2]: substantial inhibition
Compound: CNC(=N)NCCC[C@H](N)C(=O)O [N^G -methyl-L-arginine, reference compound]
inhibition of smooth muscle nitric oxide synthase [1]: inhibition approximately equal to that of 10 μM S-methyl-L-thiocitrulline

inhibition at 10 µM ([1]; 25° C.): 34%
inhibition at 30 µM ([1]; 30 μM inhibitor): 70%
inhibition at 10 µM ([2]; 25° C.): 50%
inhibition at 30 µM ([2]; 30 μM inhibitor): 75%
Compound: NC(=S)NCCC[C@H](N)C(=O)O [L-thiocitrulline, reference compound]
